Assay results published in patent publication US11225484B2, “Substituted octahydropyrrolo[3,4-b]pyrroles as antagonists of the muscarinic acetylcholine receptor M4” (Vanderbilt University, priority 2017, dated 2022).
pIC50: −log10 of the molar value.

Columns and labels:
Rat M4 = molecular target: T1, Rat M4 (Rattus norvegicus, UniProt P08485); assay: mAChR M4 cell-based functional assay (calcium flux, rat M4/Gqi5/CHO cells); conditions: for remaining activity at 30 µM: CHO, % ACh maximum at 30 μM, read-out: Emin (%) rat M4; for pIC50: antagonist mode, decrease of the response to an EC80 concentration of acetylcholine, CHO-K1 cells with Gqi5
T1 construct: expressed in transfected cells; host or cells: CHO-K1 (ATCC), co-transfected with chimeric G protein Gqi5
T1 sequence (P08485 1-478): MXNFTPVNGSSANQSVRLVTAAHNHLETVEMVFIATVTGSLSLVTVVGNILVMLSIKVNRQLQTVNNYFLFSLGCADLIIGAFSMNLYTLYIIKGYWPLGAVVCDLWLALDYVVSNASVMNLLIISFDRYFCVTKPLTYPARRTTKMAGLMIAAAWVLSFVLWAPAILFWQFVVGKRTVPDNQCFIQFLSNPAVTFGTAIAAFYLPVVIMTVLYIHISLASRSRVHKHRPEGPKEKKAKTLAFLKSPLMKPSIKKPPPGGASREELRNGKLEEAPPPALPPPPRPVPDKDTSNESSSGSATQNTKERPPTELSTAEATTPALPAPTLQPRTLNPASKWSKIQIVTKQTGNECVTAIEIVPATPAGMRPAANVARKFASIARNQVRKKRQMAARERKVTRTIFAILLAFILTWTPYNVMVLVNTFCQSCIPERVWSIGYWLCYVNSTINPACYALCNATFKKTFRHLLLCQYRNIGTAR
Method: (§1) Human or rat M4 cDNA, along with the chimeric G protein Gqi5, were transfected into Chinese hamster ovary (CHO-K1) cells purchased from the American Type Culture Collection using Lipofectamine2000. M4/Gqi5/CHO cells were grown in Ham's F-12 medium containing 10% heat-inactivated fetal bovine serum (FBS), 20 mM HEPES, 500 μg/mL G418 sulfate, and 200 μg/mL Hygromycin B.
(§2) For high throughput measurement of agonist-evoked increases in intracellular calcium, CHO-K1 cells stably expressing muscarinic receptors were plated in growth medium lacking G418 and hygromycin at 15,000 cells/20 μL/well in Greiner 384-well black-walled, tissue culture (TC)-treated, clear-bottom plates (VWR). Cells were incubated overnight at 37° C. and 5% CO2. The next day, cells were washed using an ELX 405 (BioTek) with assay buffer; the final volume was then aspirated to 20 μL. Next, 20 μL of a 2.3 μM stock of Fluo-4/acetoxymethyl ester (Invitrogen, Carlsbad, Calif.), prepared as a 2.3 mM stock in DMSO and mixed in a 1:1 ratio with 10% (w/v) Pluronic F-127 and diluted in assay buffer, was added to the wells and the cell plates were incubated for 50 min at 37° C. and 5% CO2. Dye was removed by washing with the ELX 405 and the final volume was aspirated to 20 μL. Compound master plates were formatted in a 10 point concentration-response curve (CRC) format (1:3 dilutions) in 100% DMSO with a starting concentration of 10 or 1 mM using a BRAVO liquid handler (Agilent). Test compound CRCs were then transferred to daughter plates (240 nL) using the Echo acoustic plate reformatter (Labcyte, Sunnyvale, Calif.) and then diluted into assay buffer (40 μL) to a 2× stock using a Thermo Fisher Combi (Thermo Fisher Scientific, Waltham, Mass.).
(§3) Calcium flux was measured using the Functional Drug Screening System (FDSS) 6000 or 7000 (Hamamatsu Corporation, Tokyo, Japan) as an increase in the fluorescent static ratio. Compounds were applied to cells (20 μL, 2×) using the automated system of the FDSS at 2 seconds into the protocol and the data were collected at 1 Hz. At 143 s, 10 μL of an EC20 concentration of the muscarinic receptor agonist acetylcholine was added (5×), followed by the addition of 12 μL of an EC80 concentration of acetylcholine at the 268 s time point (5×). Agonist activity was analyzed as a concentration-dependent increase in calcium mobilization upon compound addition. Positive allosteric modulator activity was analyzed as a concentration-dependent increase in the EC20 acetylcholine response. Antagonist activity was analyzed as a concentration-dependent decrease in the EC80 acetylcholine response for the purposes of the tables herein, an IC50 (inhibitory concentration 50) was calculated as a concentration-dependent decrease of the response elicited by an EC80 concentration of acetylcholine, Concentration-response curves were generated using a four-parameter logistical equation in XLFit curve fitting software (IDBS, Bridgewater, N.J.) for Excel (Microsoft, Redmond, Wash.) or Prism (GraphPad Software, Inc., San Diego, Calif.) or the Dotmatics software platform (Dotmatics, Bishop's Stortford, UK).
(§4) Compounds were synthesized as described above. Activity (IC50 and Emin) was determined in the mAChR M4 cell-based functional assay as described above and the data are shown in Table 2. The compound number corresponds to the compound numbers used in Examples 1-3.

Human M4 = molecular target: T2, Human M4 (Homo sapiens, UniProt P08173); assay: mAChR M4 cell-based functional assay (calcium flux, human M4/Gqi5/CHO cells); conditions: for remaining activity at 30 µM: CHO, % ACh maximum at 30 μM, read-out: Emin (%) human M4; for pIC50: antagonist mode, decrease of the response to an EC80 concentration of acetylcholine, CHO-K1 cells with Gqi5
T2 construct: expressed in transfected cells; host or cells: CHO-K1 (ATCC), co-transfected with chimeric G protein Gqi5
T2 sequence (P08173 1-479): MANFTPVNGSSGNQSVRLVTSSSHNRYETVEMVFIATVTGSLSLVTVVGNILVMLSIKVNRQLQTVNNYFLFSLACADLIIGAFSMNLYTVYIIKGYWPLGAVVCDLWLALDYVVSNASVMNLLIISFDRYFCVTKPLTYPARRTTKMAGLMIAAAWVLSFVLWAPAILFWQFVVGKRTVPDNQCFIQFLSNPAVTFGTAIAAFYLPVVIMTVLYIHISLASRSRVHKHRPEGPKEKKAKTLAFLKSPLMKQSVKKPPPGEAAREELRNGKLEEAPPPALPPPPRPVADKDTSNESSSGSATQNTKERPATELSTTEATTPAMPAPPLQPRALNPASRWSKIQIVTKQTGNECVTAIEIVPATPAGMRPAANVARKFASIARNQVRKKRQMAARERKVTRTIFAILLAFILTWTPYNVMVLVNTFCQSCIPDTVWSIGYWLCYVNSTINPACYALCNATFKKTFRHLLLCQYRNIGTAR
Method: as §1, §2, §3, §4

locomotor activity = conditions: M4 knockout mice, but not the other four mAChR subtypes; cited from earlier work
[1] = test system: catalepsy induced by the DA receptor antagonist haloperidol; assay: haloperidol-induced catalepsy; assay type: in vivo, mice
From the text: Furthermore, haloperidol-induced catalepsy, a model of parkinsonian motor disability, is reduced in M4 knockout mice as compared to wild-type controls. […] The reversal by scopolamine was uncommonly robust and more pronounced than we observe with agents targeting a number of other targets being evaluated for potential antiparkinsonian effects, including metabotropic glutamate (mGlu) receptors mGlu4 or mGlu5, A2A adenosine receptors, and NMDA receptors. […] Taken together with the extensive studies of M4 modulation of basal ganglia and motor function, these studies provide compelling evidence that M4 is the dominant mAChR subtype involved in the antiparkinsonian effects of non-selective mAChR antagonists and provide support for discovery and development of selective M4 antagonists for treatment of neurodegenerative disease such as PD, dystonia, tardive dyskinesia and other movement disorders.

Row | Compound | remaining activity at 30 µM (Rat M4) [%] | pIC50 (Rat M4) | remaining activity at 30 µM (Human M4) [%] | pIC50 (Human M4) | locomotor-activating effects (locomotor activity) | reduction of haloperidol-induced catalepsy ([1]; M4 KO mice) | reversal of haloperidol-induced catalepsy ([1]; WT mice)
1 | Fc1ccc(-c2ccc(N3CCC4CN(CC56CC7CC(CC(C7)C5)C6)CC43)nn2)c(Cl)c1 (stereo not drawn) [Compound 18, 5-(adamantan-1-ylmethyl)-1-(6-(2-chloro-4-fluorophenyl)pyridazin-3-yl)octahydropyrrolo[3,4-b]pyrrole] | 36.4 | < 5.00 | 12 | < 5.00 | – | – | –
2 | Cc1nn(C)c(C)c1-c1ccc(N2CCC3CN(CC45CC6CC(CC(C6)C4)C5)CC32)nn1 (stereo not drawn) [Compound 19, 5-(adamantan-1-ylmethyl)-1-(6-(1,3,5-trimethyl-1H-pyrazol-4-yl)pyridazin-3-yl)octahydropyrrolo[3,4-b]pyrrole] | 4.41 | 6.44 | 3.18 | 6.89 | – | – | –
3 | Cc1cnn(C)c1-c1ccc(N2CCC3CN(CCC(C)(C)C)CC32)nn1 (stereo not drawn) [Compound 20, 1-(6-(1,4-dimethyl-1H-pyrazol-5-yl)pyridazin-3-yl)-5-(3,3-dimethylbutyl)octahydropyrrolo[3,4-b]pyrrole] | 22.7 | < 5.00 | 8.8 | 5.65 | – | – | –
4 | Cc1cnn(C)c1-c1ccc(N2CC[C@@H]3CN(CC45CC6CC(CC(C6)C4)C5)C[C@@H]32)nn1 [Compound 21, (3aR,6aR)-5-(adamantan-1-ylmethyl)-1-(6-(1,4-dimethyl-1H-pyrazol-5-yl)pyridazin-3-yl)octahydropyrrolo[3,4-b]pyrrole] | 3.71 | 6.22 | 4.08 | 6.83 | – | – | –
5 | Cc1cnn(C)c1-c1ccc(N2CCC3CN(CC4CCOCC4)CC32)nn1 (stereo not drawn) [Compound 22, 1-(6-(1,4-dimethyl-1H-pyrazol-5-yl)pyridazin-3-yl)-5-((tetrahydro-2H-pyran-4-yl)methyl)octahydropyrrolo[3,4-b]pyrrole] | 69.7 | < 5.00 | 36.1 | < 5.00 | – | – | –
6 | Cc1cnn(C)c1-c1ccc(N2CC[C@H]3CN(CC45CC6CC(CC(C6)C4)C5)C[C@H]32)nn1 [Compound 23, (3aS,6aS)-5-(adamantan-1-ylmethyl)-1-(6-(1,4-dimethyl-1H-pyrazol-5-yl)pyridazin-3-yl)octahydropyrrolo[3,4-b]pyrrole] | 4.52 | 6.49 | 3.91 | 6.99 | – | – | –
7 | CN1[C@@H]2C[C@@H](OC(=O)[C@H](CO)c3ccccc3)C[C@H]1[C@@H]1O[C@@H]12 [scopolamine] | – | – | – | – | dramatically reduced | ineffective in reducing catalepsy | completely reversed
